Results reported in ChEMBL document CHEMBL3046322, “Insect growth regulatory effects by diterpenes from Calceolaria talcana Grau & Ehrhart (Calceolariaceae: Scrophulariaceae) against Spodoptera frugiperda and Drosophila melanogaster” (2013).
Calls of active or inactive are those of the source. The calls are words filed in the database; no cut-off is given here.

Assays:
Spodoptera frugiperda [1] = test: Growth inhibitory activity against Spodoptera frugiperda (fall armyworm) larvae fed with compound containing diet assessed as relative growth index at 10 ug/ml (reference value: 1.0 no_unit); assay type: functional
Spodoptera frugiperda [2] = test: Growth inhibitory activity against Spodoptera frugiperda (fall armyworm) larvae fed with compound containing diet assessed as growth index at 50 ug/ml (reference value: 0.95 +/-0.02 no_unit); assay type: functional
Spodoptera frugiperda [3] = test: Growth inhibitory activity against Spodoptera frugiperda (fall armyworm) larvae fed with compound containing diet assessed as growth index at 35 ug/ml (reference value: 0.95 +/-0.02 no_unit); assay type: functional
Spodoptera frugiperda [4] = test: Growth inhibitory activity against Spodoptera frugiperda (fall armyworm) larvae fed with compound containing diet assessed as relative growth index at 50 ug/ml (reference value: 1.0 no_unit); assay type: functional
Spodoptera frugiperda [5] = test: Growth inhibitory activity against Spodoptera frugiperda (fall armyworm) larvae fed with compound containing diet assessed as relative growth index at 35 ug/ml (reference value: 1.0 no_unit); assay type: functional
Spodoptera frugiperda [6] = test: Growth inhibitory activity against Spodoptera frugiperda (fall armyworm) larvae fed with compound containing diet assessed as growth index at 10 ug/ml (reference value: 0.95 +/-0.02 no_unit); assay type: functional
Spodoptera frugiperda [7] = test: Growth inhibitory activity against po dosed fourth-instar larvae of Spodoptera frugiperda (fall armyworm) assessed as proportion of prothetely appearance of precocious pupal structure in larvae after 48 to 72 hr; assay type: functional; set-up: scale not given: the % may be the effect or the level left
Spodoptera frugiperda [8] = test: Growth inhibitory activity against po dosed Spodoptera frugiperda (fall armyworm) larvae assessed as promotion of apolysis to fifth instar with ecdysis inhibition at 5 to 20 ug/ml; assay type: functional, organism-based
Spodoptera frugiperda [9] = test: Growth inhibitory activity against Spodoptera frugiperda (fall armyworm) larvae fed with compound containing diet assessed as relative growth index at 25 ug/ml (reference value: 1.0 no_unit); assay type: functional
Spodoptera frugiperda [10] = test: Growth inhibitory activity against Spodoptera frugiperda (fall armyworm) larvae fed with compound containing diet assessed as growth index at 25 ug/ml (reference value: 0.95 +/-0.02 no_unit); assay type: functional
Drosophila melanogaster [11] = test: Insecticidal activity against Drosophila melanogaster larvae fed with compound incorporated diet assessed as mortality at 100 ug/ml after 72 hr by not choice test (reference value: 0%); assay type: functional
Drosophila melanogaster [12] = test: Insecticidal activity against Drosophila melanogaster larvae fed with compound incorporated diet assessed as mortality at 50 ug/ml after 72 hr by not choice test (reference value: 0%); assay type: functional
Drosophila melanogaster [13] = test: Insecticidal activity against Drosophila melanogaster larvae fed with compound incorporated diet assessed as mortality at 20 ug/ml after 72 hr by not choice test (reference value: 0%); assay type: functional
Drosophila melanogaster [14] = test: Insecticidal activity against Drosophila melanogaster larvae fed with compound incorporated diet assessed as mortality at 5 to 100 ug/ml after 72 hr by not choice test (reference value: 0%); assay type: functional, organism-based
Spodoptera frugiperda [15] = test: Growth inhibitory activity against first-instar larval stage of Spodoptera frugiperda (fall armyworm) fed with compound incorporated diet assessed as weight gained at 25 ug/ml after 7 days (reference value: 100%); assay type: functional; set-up: scale not given: the % may be the effect or the level left
Spodoptera frugiperda [16] = test: Growth inhibitory activity against first-instar larval stage of Spodoptera frugiperda (fall armyworm) fed with compound incorporated diet assessed as weight gained at 50 ug/ml after 7 days (reference value: 100%); assay type: functional; set-up: scale not given: the % may be the effect or the level left
Spodoptera frugiperda [17] = test: Growth inhibitory activity against first-instar larval stage of Spodoptera frugiperda (fall armyworm) fed with compound incorporated diet assessed as weight gained at 10 ug/ml after 7 days (reference value: 100%); assay type: functional; set-up: scale not given: the % may be the effect or the level left
Spodoptera frugiperda [18] = test: Growth inhibitory activity against Spodoptera frugiperda (fall armyworm) larvae fed with compound containing diet assessed as reduction in adult emergence at 35 ug/ml; assay type: functional
Spodoptera frugiperda [19] = test: Growth inhibitory activity against Spodoptera frugiperda (fall armyworm) larvae fed with compound containing diet assessed as reduction in adult emergence at 20 ug/ml; assay type: functional
Spodoptera frugiperda [20] = test: Growth inhibitory activity against Spodoptera frugiperda (fall armyworm) larvae fed with compound containing diet assessed as delay in adult emergence; assay type: functional, organism-based
Spodoptera frugiperda [21] = test: Growth inhibitory activity against Spodoptera frugiperda (fall armyworm) larvae fed with compound containing diet assessed as delay in time to pupation; assay type: functional, organism-based
Spodoptera frugiperda [22] = test: Acute toxicity against last larval stage of Spodoptera frugiperda (fall armyworm) assessed as survival at 25 ug/ml applied topically onto abdomen measured after 24 hr (reference value: 98.8 +/-3.5%); assay type: functional
Spodoptera frugiperda [23] = test: Acute toxicity against last larval stage of Spodoptera frugiperda (fall armyworm) assessed as survival at 10 ug/ml applied topically onto abdomen measured after 24 hr (reference value: 98.8 +/-3.5%); assay type: functional
Spodoptera frugiperda [24] = test: Insecticidal activity against first-instar larval stage of Spodoptera frugiperda (fall armyworm) fed with compound incorporated diet assessed as mortality at 25 ug/ml after 21 days (reference value: 5.6%); assay type: functional; conditions: 504 h
Spodoptera frugiperda [25] = test: Insecticidal activity against first-instar larval stage of Spodoptera frugiperda (fall armyworm) fed with compound incorporated diet assessed as mortality at 50 ug/ml after 21 days (reference value: 5.6%); assay type: functional; conditions: 504 h
Spodoptera frugiperda [26] = test: Growth inhibitory activity against first-instar larval stage of Spodoptera frugiperda (fall armyworm) fed with compound incorporated diet assessed as length gained at 10 ug/ml after 21 days (reference value: 100%); assay type: functional
Spodoptera frugiperda [27] = test: Growth inhibitory activity against first-instar larval stage of Spodoptera frugiperda (fall armyworm) fed with compound incorporated diet assessed as weight gained at 25 ug/ml after 21 days (reference value: 100%); assay type: functional; set-up: scale not given: the % may be the effect or the level left
Spodoptera frugiperda [28] = test: Growth inhibitory activity against first-instar larval stage of Spodoptera frugiperda (fall armyworm) fed with compound incorporated diet assessed as weight gained at 50 ug/ml after 21 days (reference value: 100%); assay type: functional
Spodoptera frugiperda [29] = test: Growth inhibitory activity against first-instar larval stage of Spodoptera frugiperda (fall armyworm) fed with compound incorporated diet assessed as weight gained at 10 ug/ml after 21 days (reference value: 100%); assay type: functional
Spodoptera frugiperda [30] = test: Insecticidal activity against first-instar larval stage of Spodoptera frugiperda (fall armyworm) fed with compound incorporated diet assessed as mortality at 25 ug/ml after 7 days (reference value: 5.6%); assay type: functional; conditions: 168 h
Spodoptera frugiperda [31] = test: Insecticidal activity against first-instar larval stage of Spodoptera frugiperda (fall armyworm) fed with compound incorporated diet assessed as mortality at 50 ug/ml after 7 days (reference value: 5.6%); assay type: functional; conditions: 168 h
Spodoptera frugiperda [32] = test: Insecticidal activity against first-instar larval stage of Spodoptera frugiperda (fall armyworm) fed with compound incorporated diet assessed as mortality at 10 ug/ml after 7 days (reference value: 5.6%); assay type: functional; conditions: 168 h
Spodoptera frugiperda [33] = test: Growth inhibitory activity against first-instar larval stage of Spodoptera frugiperda (fall armyworm) fed with compound incorporated diet assessed as length gained at 25 ug/ml after 7 days (reference value: 100%); assay type: functional; set-up: scale not given: the % may be the effect or the level left
Spodoptera frugiperda [34] = test: Insecticidal activity against first-instar larval stage of Spodoptera frugiperda (fall armyworm) fed with compound incorporated diet assessed as mortality at 10 ug/ml after 21 days (reference value: 5.6%); assay type: functional; conditions: 504 h
Spodoptera frugiperda [35] = test: Growth inhibitory activity against first-instar larval stage of Spodoptera frugiperda (fall armyworm) fed with compound incorporated diet assessed as length gained at 25 ug/ml after 21 days (reference value: 100%); assay type: functional; set-up: scale not given: the % may be the effect or the level left
Spodoptera frugiperda [36] = test: Growth inhibitory activity against first-instar larval stage of Spodoptera frugiperda (fall armyworm) fed with compound incorporated diet assessed as length gained at 50 ug/ml after 21 days (reference value: 100%); assay type: functional
Spodoptera frugiperda [37] = test: Growth inhibitory activity against first-instar larval stage of Spodoptera frugiperda (fall armyworm) fed with compound incorporated diet assessed as length gained at 50 ug/ml after 7 days (reference value: 100%); assay type: functional
Spodoptera frugiperda [38] = test: Growth inhibitory activity against first-instar larval stage of Spodoptera frugiperda (fall armyworm) fed with compound incorporated diet assessed as length gained at 10 ug/ml after 7 days (reference value: 100%); assay type: functional

Compound: C[C@@H]1O[C@@H](O[C@@H]2[C@@H](O)[C@H](OCCc3ccc(O)c(O)c3)O[C@H](CO)[C@H]2OC(=O)/C=C/c2ccc(O)c(O)c2)[C@H](O)[C@H](O)[C@H]1O [ACETOSIDE]
- Growth_index (Spodoptera frugiperda [1]): 0.67
- Growth_index (Spodoptera frugiperda [2]): 0.07
- Growth_index (Spodoptera frugiperda [3]): 0.09
- Growth_index (Spodoptera frugiperda [4]): 0.1
- Growth_index (Spodoptera frugiperda [5]): 0.15
- Growth_index (Spodoptera frugiperda [6]): 0.66
- Activity (Spodoptera frugiperda [7]): 30%
- Activity (Spodoptera frugiperda [8]): Active
- Growth_index (Spodoptera frugiperda [9]): 0.45
- Growth_index (Spodoptera frugiperda [10]): 0.41
- mortality at 100 µg/mL (Drosophila melanogaster [11]): 100%
- mortality at 50 µg/mL (Drosophila melanogaster [12]): 100%
- mortality at 20 µg/mL (Drosophila melanogaster [13]): 92%

Compound: CC1OC2=C(C(=O)c3ccccc3C2=O)C1(C)C (stereo unspecified)
- mortality (Drosophila melanogaster [14]): inactive

Compound: CC[C@H](CC[C@@H](C)[C@H]1CC[C@H]2[C@@H]3CC=C4C[C@@H](O)CC[C@]4(C)[C@H]3CC[C@]12C)C(C)C
- mortality (Drosophila melanogaster [14]): inactive

Compound: C=C(C)[C@@H]1CC[C@]2(C)CC[C@]3(C)[C@H](CC[C@@H]4[C@@]5(C)CC[C@H](O)C(C)(C)[C@@H]5CC[C@]43C)[C@@H]12
- mortality (Drosophila melanogaster [14]): inactive

Compound: CC(=O)O[C@@H]1C[C@H]2C(C)(C)C(=O)C=C[C@]2(C)[C@H]2CC[C@@]3(C)[C@H](c4ccoc4)OC(=O)[C@H]4O[C@]43[C@@]21C [GEDUNIN]
- Activity (Spodoptera frugiperda [15]): 3.3%
- Activity (Spodoptera frugiperda [16]): 1.9%
- Activity (Spodoptera frugiperda [17]): 7.1%
- Growth_index (Spodoptera frugiperda [1]): 0.71
- Growth_index (Spodoptera frugiperda [2]): 0.1
- Growth_index (Spodoptera frugiperda [4]): 0.11
- Growth_index (Spodoptera frugiperda [6]): 0.77
- inhibition at 35 µg/mL (Spodoptera frugiperda [18]): 0%
- inhibition at 20 µg/mL (Spodoptera frugiperda [19]): 0%
- inhibition (Spodoptera frugiperda [20]): Active
- Activity (Spodoptera frugiperda [7]): 30%
- Activity (Spodoptera frugiperda [8]): Active
- Growth_index (Spodoptera frugiperda [9]): 0.55
- Growth_index (Spodoptera frugiperda [10]): 0.51
- inhibition (Spodoptera frugiperda [21]): Active
- mortality at 100 µg/mL (Drosophila melanogaster [11]): 11%
- mortality at 50 µg/mL (Drosophila melanogaster [12]): 100%
- mortality at 20 µg/mL (Drosophila melanogaster [13]): 87.1%
- Activity (Spodoptera frugiperda [22]): 14.1%
- Activity (Spodoptera frugiperda [23]): 54.7%
- mortality at 25 µg/mL (Spodoptera frugiperda [24]): 100%
- mortality at 50 µg/mL (Spodoptera frugiperda [25]): 98.7%
- Length gained relative to control (Spodoptera frugiperda [26]): 0%
- Activity (Spodoptera frugiperda [27]): 0%
- Weight gain relative to control (Spodoptera frugiperda [28]): 2.05%
- Weight gain (% of control) (Spodoptera frugiperda [29]): 0%
- mortality at 25 µg/mL (Spodoptera frugiperda [30]): 38%
- mortality at 50 µg/mL (Spodoptera frugiperda [31]): 70.8%
- mortality at 10 µg/mL (Spodoptera frugiperda [32]): 33%
- Activity (Spodoptera frugiperda [33]): 20%
- mortality at 10 µg/mL (Spodoptera frugiperda [34]): 100%
- Activity (Spodoptera frugiperda [35]): 0%
- Length gained (% of control) (Spodoptera frugiperda [36]): 11.6%
- Length gain relative to control (Spodoptera frugiperda [37]): 16.7%
- Larval length gained (% of control) (Spodoptera frugiperda [38]): 32.5%
